The results in this text go back to BindingDB's records for doi:10.1021/jm801420y (St. Jude Children'S Research Hospital, 2009).

SMILES strings stand for the structures. Some results are limits rather than exact numbers.

Chain of Sonic hedgehog protein (Mus musculus, UniProt Q62226) (Q62226 25-198 limits assumed): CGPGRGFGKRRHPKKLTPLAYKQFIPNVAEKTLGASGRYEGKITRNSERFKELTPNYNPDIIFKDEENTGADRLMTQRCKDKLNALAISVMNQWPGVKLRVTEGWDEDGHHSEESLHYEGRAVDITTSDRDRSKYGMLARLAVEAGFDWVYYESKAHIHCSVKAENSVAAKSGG
Chain of Sonic hedgehog protein (Homo sapiens, UniProt Q15465) (Q15465 24-197 limits assumed): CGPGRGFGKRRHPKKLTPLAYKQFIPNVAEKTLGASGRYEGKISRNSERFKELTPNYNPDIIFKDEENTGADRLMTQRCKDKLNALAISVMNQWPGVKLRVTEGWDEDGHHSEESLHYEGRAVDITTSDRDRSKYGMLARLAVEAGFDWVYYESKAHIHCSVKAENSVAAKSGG

The first assay has as its target Sonic hedgehog protein (Homo sapiens, UniProt Q15465). The assay is described as follows: Inhibition of lipid-modified (octylated) form of SHH expressed in mouse s12 cells by luciferase reporter gene assay.
One may read the IC50 as the point on the concentration scale where inhibition reaches its midpoint. Low values mean greater potency in that assay, high ones weaker potency in that assay. `CC1=C2C(=O)[C@H]3[C@@H](CC=C4C[C@@H](O)CC[C@@]43C)[C@@H]2CC[C@]12O[C@@H]1C[C@H](C)CN[C@H]1[C@H]2C` [5'-hydroxy-2',3,6,15'-tetramethyl-(1'S,2'R,2'R,3R,3aS,5'S,6S,7aR,10'S,11'S)-spiro[perhydrofuro[3,2-b]pyridine-2,14'-tetracyclo[8.7.0.02,7.011,16]heptadeca-7',15'-diene]-17'-one]: the IC50 was 500 nM.

`COc1cccc(CN(C(=O)CC(C)(C)C)[C@H]2C[C@@H](C(=O)N3CCNCC3)N(Cc3ccc4c(c3)OCO4)C2)c1` [N-((3S,5S)-1-(benzo[d][1,3]dioxol-5-ylmethyl)-5-(piperazine-1-carbonyl)pyrrolidin-3-yl)-N-(3-methoxybenzyl)-3,3-dimethylbutanamide]: half-maximal inhibition (IC50) required 100 nM.

A further assay addresses Sonic hedgehog protein (Mus musculus, UniProt Q62226). The assay is described as follows: Inhibition of SHH in mouse Shh Light2 cells by GLI-responsive firefly luciferase reporter gene assay. (A reporter such as luciferase makes a cellular process visible.)
Broadly, the EC50 is the concentration giving half of the maximal effect. Low readings indicate a more potent agent, high ones a less potent agent. Molecule `CC1=C2C[C@H]3[C@@H](CC=C4C[C@@H](O)CC[C@@]43C)[C@@H]2CC[C@]12O[C@@H]1C[C@H](C)CN[C@H]1[C@H]2C` returned an EC50 of 500 nM. In the case of `CC(=O)c1cccc(Nc2nc(-c3ccccc3)cs2)c1` [1-(3-(4-phenylthiazol-2-ylamino)phenyl)ethanone], the IC50 came out at 100 nM. Consider `CN(C)c1ccccc1CN1CCCN(Cc2ccccc2N(C)C)C1c1ccncc1` [2-((3-(2-(dimethylamino)benzyl)-2-(pyridin-4-yl)-tetrahydropyrimidin-1(2H)-yl)methyl)-N,N-dimethylbenzenamine], for which the IC50 came out at 5000 nM.

Turning to `CS(=O)(=O)c1ccc(C(=O)Nc2ccc(Cl)c(-c3ccccn3)c2)c(Cl)c1` [2-chloro-N-(4-chloro-3-(pyridin-2-yl)phenyl)-4-(methylsulfonyl)benzamide], half-maximal inhibition (IC50) was put at 3 nM. In turn, `c1cc(-c2sc(-c3ccncc3)c(-c3ccncc3)c2-c2ccncc2)ccn1` [4-(3,4,5-tri(pyridin-4-yl)thiophen-2-yl)pyridine] showed an IC50 of 5000 nM.

`Cc1nc2ccccn2c1-c1csc(NC(=O)c2ccc3ccccc3c2)n1` [N-(4-(2-methylimidazo[1,2-a]pyridin-3-yl)thiazol-2-yl)-2-naphthamide] showed an IC50 of 100 nM.

The molecule `COc1cc(OC)cc(C(=O)Nc2ccc(Cl)c(-c3nc4ccc(N(C)C)cc4[nH]3)c2)c1` [N-(4-chloro-3-(5-(dimethylamino)-1H-benzo[d]imidazol-2-yl)phenyl)-3,5-dimethoxybenzamide] displayed an EC50 of 40 nM. Regarding `CCOc1ccc(Nc2nc(-c3c(C)nc4ccccn34)cs2)cc1` [N-(4-ethoxyphenyl)-4-(2-methylimidazo[1,2-a]pyridin-3-yl)thiazol-2-amine], half-maximal inhibition (IC50) required 30 nM. In turn, `COc1ccc(Cl)cc1Nc1nc(-c2cccnc2)cs1` [N-(5-chloro-2-methoxyphenyl)-4-(pyridin-3-yl)thiazol-2-amine] returned a 50% inhibitory concentration (IC50) of 100 nM.

For the next assay, the target named is T1, Zinc finger protein GLI1 (Homo sapiens, UniProt P08151).
T1 sequence (P08151 whole entry): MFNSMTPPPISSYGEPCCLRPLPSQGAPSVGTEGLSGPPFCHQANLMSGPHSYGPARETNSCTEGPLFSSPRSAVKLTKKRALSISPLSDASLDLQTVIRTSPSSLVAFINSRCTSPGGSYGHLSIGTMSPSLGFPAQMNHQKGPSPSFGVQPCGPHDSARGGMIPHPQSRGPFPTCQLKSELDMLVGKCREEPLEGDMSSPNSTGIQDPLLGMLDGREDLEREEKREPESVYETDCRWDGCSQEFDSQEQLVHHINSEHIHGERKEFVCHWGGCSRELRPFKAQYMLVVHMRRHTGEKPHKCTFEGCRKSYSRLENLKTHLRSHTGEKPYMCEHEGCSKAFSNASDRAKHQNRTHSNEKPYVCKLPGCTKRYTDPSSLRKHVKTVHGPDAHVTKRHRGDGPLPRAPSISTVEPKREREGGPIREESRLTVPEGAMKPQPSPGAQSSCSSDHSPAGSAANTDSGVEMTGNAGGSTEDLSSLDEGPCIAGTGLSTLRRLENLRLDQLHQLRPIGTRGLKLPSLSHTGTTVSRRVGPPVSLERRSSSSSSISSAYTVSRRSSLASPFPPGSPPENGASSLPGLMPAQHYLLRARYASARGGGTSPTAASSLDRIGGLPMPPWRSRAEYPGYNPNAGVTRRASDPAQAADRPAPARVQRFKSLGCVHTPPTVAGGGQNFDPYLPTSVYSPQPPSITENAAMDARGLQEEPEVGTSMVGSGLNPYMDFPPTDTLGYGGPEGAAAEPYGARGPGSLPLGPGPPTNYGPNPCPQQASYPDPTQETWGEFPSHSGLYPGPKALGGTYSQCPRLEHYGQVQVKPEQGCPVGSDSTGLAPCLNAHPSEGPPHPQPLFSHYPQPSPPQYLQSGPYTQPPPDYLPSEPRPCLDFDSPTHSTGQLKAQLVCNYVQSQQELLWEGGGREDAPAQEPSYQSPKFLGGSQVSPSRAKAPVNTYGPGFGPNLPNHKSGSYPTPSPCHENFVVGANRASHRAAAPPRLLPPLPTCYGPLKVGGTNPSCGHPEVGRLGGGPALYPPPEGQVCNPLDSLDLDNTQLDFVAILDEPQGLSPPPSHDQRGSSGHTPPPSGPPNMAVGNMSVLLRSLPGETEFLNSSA
The assay is described as follows: Inhibition of Gli1-mediated transcription expressed in human PANC1 cells.
`O=C1NCc2c1c1c3ccccc3[nH]c1c1[nH]c3ccccc3c21` displayed an IC50 of 1800 nM.

`C[C@]12C(=O)C=CCC1=CC[C@@H]1[C@@H]2CC[C@]2(O)C(=O)O[C@@]3(C)[C@H]4C[C@]5(C)[C@@H](CO[C@@]16O[C@@]32[C@H]5C6=O)C(=O)O4` [NSC-287088] came in with an IC50 of 620 nM. On the same count and under the same terms, the same measure for `C[C@@]12C[C@H]3OC(=O)[C@@H]1CO[C@]14O[C@]5([C@H]2C1=O)[C@@](O)(CC[C@H]1[C@H]4C[C@H]2O[C@]24CC=CC(=O)[C@]14C)C(=O)O[C@@]35C` [PHYSALIN F]: 660 nM; for `C/C1=C\CC(C)(C)/C=C/C(=O)/C(C)=C/CC1` [Zerumbone]: 7100 nM.

The target in the next assay is Zinc finger protein GLI2 (Homo sapiens, UniProt P10070). The assay is described as follows: Inhibition of Gli2-mediated transcription expressed in human PANC1 cells.
Chain of Zinc finger protein GLI2 (P10070 whole entry): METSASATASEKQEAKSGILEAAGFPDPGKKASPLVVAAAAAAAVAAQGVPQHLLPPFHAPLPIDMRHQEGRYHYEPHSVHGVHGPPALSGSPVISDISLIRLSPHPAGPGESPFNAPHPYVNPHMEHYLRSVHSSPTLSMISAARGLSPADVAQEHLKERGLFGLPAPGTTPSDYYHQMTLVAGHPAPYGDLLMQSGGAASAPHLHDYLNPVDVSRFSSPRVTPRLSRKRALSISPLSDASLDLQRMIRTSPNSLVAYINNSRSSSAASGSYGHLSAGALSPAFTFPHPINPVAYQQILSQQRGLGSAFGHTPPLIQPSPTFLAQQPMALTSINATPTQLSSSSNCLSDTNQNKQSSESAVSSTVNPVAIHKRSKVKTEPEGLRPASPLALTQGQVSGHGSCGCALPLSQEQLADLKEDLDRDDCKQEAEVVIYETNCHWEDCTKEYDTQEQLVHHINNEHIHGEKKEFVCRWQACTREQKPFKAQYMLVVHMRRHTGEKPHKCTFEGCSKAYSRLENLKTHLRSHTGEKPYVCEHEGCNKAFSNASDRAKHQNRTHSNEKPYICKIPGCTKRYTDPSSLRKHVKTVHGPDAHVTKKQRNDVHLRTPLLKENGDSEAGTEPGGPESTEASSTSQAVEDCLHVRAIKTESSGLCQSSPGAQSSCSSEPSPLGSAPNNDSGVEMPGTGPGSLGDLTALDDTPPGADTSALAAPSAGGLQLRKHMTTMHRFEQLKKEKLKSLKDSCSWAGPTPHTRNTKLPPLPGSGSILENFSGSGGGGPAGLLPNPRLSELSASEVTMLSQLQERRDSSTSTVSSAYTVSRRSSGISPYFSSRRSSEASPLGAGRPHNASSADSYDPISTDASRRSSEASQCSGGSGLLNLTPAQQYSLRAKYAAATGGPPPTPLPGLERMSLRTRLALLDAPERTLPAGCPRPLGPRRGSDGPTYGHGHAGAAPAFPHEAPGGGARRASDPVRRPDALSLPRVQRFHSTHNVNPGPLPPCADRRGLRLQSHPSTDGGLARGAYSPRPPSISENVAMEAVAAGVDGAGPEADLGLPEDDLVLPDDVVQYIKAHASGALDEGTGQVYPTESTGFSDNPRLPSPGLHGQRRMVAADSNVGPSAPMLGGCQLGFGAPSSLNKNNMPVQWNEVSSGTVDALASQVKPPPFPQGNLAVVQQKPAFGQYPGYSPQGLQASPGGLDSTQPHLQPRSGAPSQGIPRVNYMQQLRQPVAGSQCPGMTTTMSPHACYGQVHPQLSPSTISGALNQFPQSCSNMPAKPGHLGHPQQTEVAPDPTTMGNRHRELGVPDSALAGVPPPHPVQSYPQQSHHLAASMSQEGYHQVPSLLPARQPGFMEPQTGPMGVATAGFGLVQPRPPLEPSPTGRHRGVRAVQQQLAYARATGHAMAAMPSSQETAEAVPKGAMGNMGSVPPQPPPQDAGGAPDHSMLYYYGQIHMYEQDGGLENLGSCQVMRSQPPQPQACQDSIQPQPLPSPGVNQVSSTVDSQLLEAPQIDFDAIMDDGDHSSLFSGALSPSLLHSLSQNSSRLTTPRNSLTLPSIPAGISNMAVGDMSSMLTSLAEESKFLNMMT
`O=C1NCc2c1c1c3ccccc3[nH]c1c1[nH]c3ccccc3c21` showed an IC50 of 2700 nM. `C/C1=C\CC(C)(C)/C=C/C(=O)/C(C)=C/CC1` [Zerumbone] had an IC50 of 910 nM.

Target in a further assay: not listed separately
The assay is described as follows: Inhibition of SHH-mediated mouse C3H10T1/2 cells differentiation into osteoblasts by alkaline phosphatase assay.
In turn, `Cc1cccc(C)c1NC(=O)c1ccc(Nc2nc(C3CC3)c3ccccc3n2)cc1` [4-(4-cyclopropylquinazolin-2-ylamino)-N-(2,6-dimethylphenyl)benzamide] registered an IC50 of 2.8 nM. On the same count and under the same terms, for `Cc1nn(-c2ccccc2)c(C)c1C=NN1CCN(Cc2ccccc2)CC1` [4-benzyl-N-((3,5-dimethyl-1-phenyl-1H-pyrazol-4-yl)methylene)piperazin-1-amine] the value was < 20 nM. As to `COc1ccc(-c2cc(C3CC3)nc(SCC(C)=O)c2C#N)cc1` [6-cyclopropyl-4-(4-methoxyphenyl)-2-(2-oxopropylthio)nicotinonitrile], the IC50 is < 100 nM. Molecule `CCCCCc1ccc(-c2ccc(/C=C/C(=O)N3CCCCC3)cc2)nc1` [(E)-3-(4-(5-pentylpyridin-2-yl)phenyl)-1-(piperidin-1-yl)prop-2-en-1-one] came in with an IC50 of 200 nM. `CN1CCCc2ccc(NC(=O)c3ccc(Nc4nc(-c5ccccc5)c5ccccc5n4)cc3)cc21` [N-(1-methyl-1,2,3,4-tetrahydroquinolin-7-yl)-4-(4-phenylquinazolin-2-ylamino)benzamide] displayed an IC50 of 5.8 nM.

Regarding `Cc1cccc(C)c1NC(=O)c1ccc(Nc2nc(-c3ccccc3)c3cccnc3n2)cc1` [N-(2,6-dimethylphenyl)-4-(4-phenylpyrido[2,3-d]pyrimidin-2-ylamino)benzamide], the midpoint of inhibition, the IC50, lay at 3.6 nM.

Molecule `CCOc1cc(C(=O)Nc2ccc(Cl)c(-c3nc4ccccc4[nH]3)c2)cc(OCC)c1OCC` [N-(3-(1H-Benzo[d]imidazol-2-yl)-4-chlorophenyl)-3,4,5-triethoxybenzamide] had an IC50 of 30 nM.
